One may read the IC50 as the concentration that inhibits the measured activity by half. What is called EC50 is the concentration giving half of the maximal effect.

Where two headings read alike, the source gives them in different places. Bounds are passed on as bounds.

Drawing on patent US20240199647A1, “ANTI-VIRAL COMPOUNDS” (Aligos Therapeutics, Inc., priority 2022, published 2024), this text covers IC50, EC50 and CC50 for 15 compounds.

The target in one data set is SARS-Cov-2 3CLpro (Severe acute respiratory syndrome coronavirus 2, UniProt P0DTD1). Briefly: biochemical. The note with it: Table A, class symbols, read-out: SARS-Cov-2 (IC50).
For data set [1], the system named is human beta-coronavirus OC43. Briefly: OC43 Coronavirus Assay in HeLa cells (antiviral, cytopathic effect, cell-titer-glo). Type of data set: cell-based. As to conditions: Betacoronavirus 1, OC43, HeLa, Table B, OC43 coronavirus in HeLa cells, read-out: EC50.
The subject of data set [2] is SARS-CoV-2 B.1.1.7 lineage. Briefly: microbe, parasite or virus in culture. The data set is classed as cell-based. The note with it: Severe acute respiratory syndrome coronavirus 2, Table C, SARS-CoV-2 B.1.1.7 in A549-dual_ACE2_TMPRSS2 cells, read-out: A549-dual_ACE2_TMPRSS2 (EC50).
The nature of the next data set: in vitro. The note with it: human.
Data set [3] in a line: Cytotoxicity in HeLa cells without addition of OC43 virus (in parallel). The note with it: human, HeLa cells, without OC43 virus.

As for `CC(C)C[C@@H](C(=O)N1C[C@@]2(C[C@H]1C#N)Oc1ccccc1NC2=O)N(C)C(=O)c1cc2c(F)cc(F)cc2[nH]1` [Example 2, N—((S)-1-((2R,5'S)-5′-cyano-3-oxo-3,4-dihydrospiro[benzo[b][1,4]oxazine-2,3′-pyrrolidin]-1′-yl)-4-methyl-1-oxopentan-2-yl)-4,6-difluoro-N-methyl-1H-indole-2-carboxamide], the IC50 on SARS-Cov-2 3CLpro is less than 20 nM. For the same compound, the EC50 in data set [1] (class symbols) and in data set [2] (class symbols) was 100 to 1000 nM throughout. For the same compound, the CC50 in the data set “in vitro” was greater than 1000 nM. The same compound returned a CC50 at 6 days in data set [3] greater than 10000 nM.
Turning to `CC(C)C[C@@H](C(=O)N1C[C@@]2(C[C@H]1C#N)Oc1ccncc1NC2=O)N(C)C(=O)c1cc2c(F)cc(F)cc2[nH]1` [Example 3, N—((S)-1-((2R,5'S)-5′-cyano-3-oxo-3,4-dihydrospiro[pyrido[4,3-b][1,4]oxazine-2,3′-pyrrolidin]-1′-yl)-4-methyl-1-oxopentan-2-yl)-4,6-difluoro-N-methyl-1H-indole-2-carboxamide], the IC50 on SARS-Cov-2 3CLpro fell in the range of 20 to 200 nM. Moreover, the EC50 in data set [1] (cells given as a bound) is greater than 1000 nM; in data set [2] (class symbols) it was 1000 to 10000 nM. This compound came in with a CC50 in the data set “in vitro” greater than 1000 nM. For the same compound, the CC50 at 6 days in data set [3] is greater than 10000 nM.
With `CC(C)C[C@@H](C(=O)N1C[C@@]2(C[C@H]1C#N)OCc1ccccc1NC2=O)N(C)C(=O)c1cc2c(F)cc(F)cc2[nH]1` [Example 4, N—((S)-1-((3R,5'S)-5′-cyano-2-oxo-1,5-dihydro-2H-spiro[benzo[e][1,4]oxazepine-3,3′-pyrrolidin]-1′-yl)-4-methyl-1-oxopentan-2-yl)-4,6-difluoro-N-methyl-1H-indole-2-carboxamide], the IC50 on SARS-Cov-2 3CLpro lay within 20 to 200 nM. The EC50 is greater than 1000 nM in data set [1] (cells given as a bound) and 1000 to 10000 nM in data set [2] (class symbols). The compound further gave a CC50 in “in vitro” greater than 1000 nM. Besides, in data set [3], the CC50 at 6 days was greater than 10000 nM.
On to `CC(C)C[C@@H](C(=O)N1C[C@]2(C[C@H]1C#N)OC(=O)Nc1ccccc12)N(C)C(=O)c1cc2c(F)cc(F)cc2[nH]1` [Example 5, N—((S)-1-((4R,5'S)-5′-cyano-2-oxo-1,2-dihydrospiro[benzo[d][1,3]oxazine-4,3′-pyrrolidin]-1′-yl)-4-methyl-1-oxopentan-2-yl)-4,6-difluoro-N-methyl-1H-indole-2-carboxamide], for which, on SARS-Cov-2 3CLpro, the IC50 was in the range of 200 to 2000 nM. The values for the EC50 in data set [1] (cells given as a bound) and in data set [2] (class symbols) were greater than 1000 nM and 1000 to 10000 nM, respectively. In the data set “in vitro”, the CC50 is greater than 1000 nM. Besides, the CC50 at 6 days in data set [3] was greater than 10000 nM.
With `CC(C)C[C@@H](C(=O)N1C[C@@]2(C[C@H]1C#N)N=C(c1ccccc1)NC2=O)N(C)C(=O)c1cc2c(F)cc(F)cc2[nH]1` [Example 6, N-[(2S)-1-[(5R,8S)-8-cyano-4-oxo-2-phenyl-1,3,7-triazaspiro[4.4]non-1-en-7-yl]-4-methyl-1-oxopentan-2-yl]-4,6-difluoro-N-methyl-1H-indole-2-carboxamide], on SARS-Cov-2 3CLpro, the IC50 is less than 20 nM. Moreover, the EC50 in data set [1] (class symbols) and in data set [2] (class symbols) was 100 to 1000 nM in each case. The same compound gave a CC50 in “in vitro” greater than 1000 nM. In addition, the CC50 at 6 days in data set [3] is greater than 10000 nM.
Take `CC(C)C[C@@H](C(=O)N1C[C@]2(C[C@H]1C#N)C(=O)Nc1c3ccccc3nn12)N(C)C(=O)[C@H](C)NC(=O)C(F)(F)F` [Example 27, (2S)—N-[(2S)-1-[(3R,5'S)-5′-cyano-2-oxo-1H-spiro[imidazo[1,2-b]indazole-3,3′-pyrrolidin]-1′-yl]-4-methyl-1-oxopentan-2-yl]-N-methyl-2-(2,2,2-trifluoroacetamido)propanamide]: the half-inhibitory concentration (IC50) at SARS-Cov-2 3CLpro was 20 to 200 nM. Further, the 50% effective concentration (EC50) in data set [1] (class symbols) was 1000 to 10000 nM; in data set [2] (cells given as a bound) it was greater than 1000 nM. The compound also gave a CC50 in “in vitro” greater than 1000 nM. For the same compound, the CC50 at 6 days in data set [3] is greater than 10000 nM.
For the compound `CC(C)C[C@@H](C(=O)N1C[C@]2(CC(c3ccccc3)=NNC2=O)C[C@H]1C#N)N(C)C(=O)[C@H](C)NC(=O)C(F)(F)F` [Example 29, (S)—N—((S)-1-((3S,5R)-3-cyano-6-oxo-9-phenyl-2,7,8-triazaspiro[4.5]dec-8-en-2-yl)-4-methyl-1-oxopentan-2-yl)-N-methyl-2-(2,2,2-trifluoroacetamido)propanamide], the IC50 on SARS-Cov-2 3CLpro fell in the range of 20 to 200 nM. Besides, the EC50 lay in the range of 1000 to 10000 nM in data set [1] (class symbols) and 100 to 1000 nM in data set [2] (class symbols). Further, in “in vitro”, the CC50 is greater than 1000 nM. In data set [3], this compound yielded a CC50 at 6 days greater than 10000 nM.
As for `CC(C)C[C@@H](C(=O)N1C[C@]2(CC(c3ccccc3)=NNC2=O)C[C@H]1C#N)N(C)C(=O)c1cc2c(F)cc(F)c(F)c2[nH]1` [Example 30, N—((S)-1-((3S,5R)-3-cyano-6-oxo-9-phenyl-2,7,8-triazaspiro[4.5]dec-8-en-2-yl)-4-methyl-1-oxopentan-2-yl)-4,6,7-trifluoro-N-methyl-1H-indole-2-carboxamide], the IC50 at SARS-Cov-2 3CLpro was less than 20 nM. Moreover, the EC50 in data set [1] (class symbols) and in data set [2] (class symbols) was 100 to 1000 nM throughout. Moreover, the CC50 in the data set “in vitro” is greater than 1000 nM. Also, the CC50 at 6 days in data set [3] is greater than 10000 nM.
Take `CN(C(=O)[C@H](CC1CC1)NC(=O)C(F)(F)F)[C@@H](CC1CC1)C(=O)N1C[C@]2(C[C@H]1C#N)C(=O)Nc1nccn12` [Example 31, (2S)—N-[(2S)-1-[(3R,5'S)-5′-cyano-2-oxo-1H-spiro[[1,3]diazolo[1,2-a]imidazole-3,3′-pyrrolidin]-1′-yl]-3-cyclopropyl-1-oxopropan-2-yl]-3-cyclopropyl-N-methyl-2-(2,2,2-trifluoroacetamido)propanamide]: at SARS-Cov-2 3CLpro, the IC50 fell in the range of 20 to 200 nM. Also, the results for the EC50 in data set [1] (cells given as a bound) and in data set [2] (cells given as a bound) were greater than 10000 nM and greater than 1000 nM, respectively. For the same compound, the CC50 in the data set “in vitro” is greater than 1000 nM. For the same compound, the CC50 at 6 days in data set [3] was greater than 10000 nM.
Turning to `CC(C)C[C@@H](C(=O)N1C[C@]2(Cc3ccccc3NC2=O)C[C@H]1C#N)N(C)C(=O)[C@H](C)NC(=O)C(F)(F)F` [Example 32, (S)—N—((S)-1-((3S,5S)-5-cyano-2′-oxo-1′,4′-dihydro-2′H-spiro[pyrrolidine-3,3′-quinolin]-1-yl)-4-methyl-1-oxopentan-2-yl)-N-methyl-2-(2,2,2-trifluoroacetamido)propanamide], at SARS-Cov-2 3CLpro, the IC50 is less than 20 nM. The EC50 in data set [1] (class symbols) lay in the range of 1000 to 10000 nM; in data set [2] (class symbols) it was 100 to 1000 nM. Further, in the data set “in vitro”, the CC50 was greater than 1000 nM. The CC50 at 6 days in data set [3] is greater than 10000 nM.
The corresponding values for `CN(C(=O)[C@H](CC1CC1)NC(=O)C(F)(F)F)[C@@H](CC1CC1)C(=O)N1C[C@@]2(C[C@H]1C#N)Oc1cc(C#N)cc(F)c1NC2=O` [Example 34, (S)-3-cyclopropyl-N—((S)-3-cyclopropyl-1-((2R,5'S)-5′,7-dicyano-5-fluoro-3-oxo-3,4-dihydrospiro[benzo[b][1,4]oxazine-2,3′-pyrrolidin]-1′-yl)-1-oxopropan-2-yl)-N-methyl-2-(2,2,2-trifluoroacetamido)propanamide] are less than 20 nM, 100 to 1000 nM, 100 to 1000 nM, greater than 1000 nM and greater than 10000 nM.
The corresponding values for `CC(C)C[C@@H](C(=O)N1C[C@@]2(C[C@H]1C#N)Oc1cc(F)cc(F)c1NC2=O)N(C)C(=O)[C@H](CC1CC1)NC(=O)C(F)(F)F` [Example 36, (S)—N—((S)-1-((2R,5'S)-5′-cyano-5,7-difluoro-3-oxo-3,4-dihydrospiro[benzo[b][1,4]oxazine-2,3′-pyrrolidin]-1′-yl)-4-methyl-1-oxopentan-2-yl)-3-cyclopropyl-N-methyl-2-(2,2,2-trifluoroacetamido)propanamide] are less than 20 nM, less than 100 nM, 100 to 1000 nM, greater than 1000 nM and greater than 10000 nM.
The corresponding values for `C[C@H](NC(=O)C(F)(F)F)C(=O)N(C)[C@@H](CC1CC1)C(=O)N1C[C@@]2(C[C@H]1C#N)Oc1cc(F)cc(F)c1NC2=O` [Example 37, (S)—N—((S)-1-((2R,5'S)-5′-cyano-5,7-difluoro-3-oxo-3,4-dihydrospiro[benzo[b][1,4]oxazine-2,3′-pyrrolidin]-1′-yl)-3-cyclopropyl-1-oxopropan-2-yl)-N-methyl-2-(2,2,2-trifluoroacetamido)propanamide] are less than 20 nM, less than 100 nM, 100 to 1000 nM, greater than 1000 nM and greater than 10000 nM.
As for `CC(C)C[C@@H](C(=O)N1C[C@]2(C[C@H]1C#N)C(=O)Nc1ccccc1N2C)N(C)C(=O)[C@H](C)NC(=O)C(F)(F)F` [Example 42, (S)—N—((S)-1-((3R,5S)-5-cyano-1′-methyl-3′-oxo-3′,4′-dihydro-1′H-spiro[pyrrolidine-3,2′-quinoxalin]-1-yl)-4-methyl-1-oxopentan-2-yl)-N-methyl-2-(2,2,2-trifluoroacetamido) propanamide], the IC50 at SARS-Cov-2 3CLpro was in the range of 20 to 200 nM. For the same compound, the EC50 in data set [1] (cells given as a bound) is greater than 10000 nM; in data set [2] (class symbols), 100 to 1000 nM. Further, the CC50 in the data set “in vitro” is greater than 1000 nM. The compound also registered a CC50 at 6 days in data set [3] greater than 10000 nM.
Regarding `CC(C)C[C@@H](C(=O)N1C[C@]2(C[C@H]1C#N)C(=O)Nc1ccccc1C2(F)F)N(C)C(=O)[C@H](C)NC(=O)C(F)(F)F` [Example 43, (S)—N—((S)-1-((3R,5S)-5-cyano-4′,4′-difluoro-2′-oxo-1′,4′-dihydro-2′H-spiro[pyrrolidine-3,3′-quinolin]-1-yl)-4-methyl-1-oxopentan-2-yl)-N-methyl-2-(2,2,2-trifluoroacetamido)propanamide], the IC50 on SARS-Cov-2 3CLpro is 20 to 200 nM. In addition, the 50% effective concentration (EC50) in data set [1] (class symbols) is 1000 to 10000 nM; in data set [2] (class symbols), 100 to 1000 nM. Moreover, the CC50 in “in vitro” is greater than 1000 nM. In data set [3], the CC50 at 6 days is greater than 10000 nM.
